The target of one data set is hDAT (Homo sapiens (Human), UniProt Q01959). Put plainly: Dopamine receptor inhibitory activity evaluation (binding assay, CHO-S/hDAT membranes). The following applies: for Inhibitory effect on dopamine receptors (in words): off-target. As for the experimental part:
The binding evaluation assay was outsourced to Eurofins. Specifically, CHO—S/hDAT cells were homogenized in an incubation buffer consisting of 50 mmol/L Tris-HCl, pH 7.4, 100 mmol/L NaCl, 1 μmol/L Leupeptin, and 10 μmol/L PMSF. The membrane pellet obtained by centrifugation was resuspended in the incubation buffer to prepare a membrane preparation. The test compound (1-10 μmol/L DMSO solution), the membrane preparation, and 0.15 nmol/L […] were mixed and incubated at 4° C. for 180 minutes. The cell membrane-[^125I]RTI-55 complex was bound to a GF/B filter mat by vacuum filtration and washed with 50 mmol/L Tris-HCl, pH 7.4. The effect on the receptor was assessed by measuring radioactivity using a scintillation counter.

The next data set can be described thus: Solubility test. The format is physicochemical. Particulars: for solubility: aqueous buffer, thermodynamic from solid. As to the method: The solubility was measured for Examples 7, 10, 20, 23, 24, and 30 to 34, Comparative Example 1, and Comparative Example 2. The test compound was added to 10 mmol/L glycine buffer (pH 2.0) and 10 mmol/L citrate buffer (pH 3.0), and the mixture was stored in a thermostatic chamber at 5° C. After standing overnight, the mixture was filtered through a membrane filter, and the concentration of the filtrate was measured by HPLC.
The HPLC measurement conditions are as follows.
HPLC conditions • Column: Acquity UPLC BEH C18, 1.7 μm, 50×2.1 mm • Column temperature: 40° C. • Mobile phase: A: 0.1% trifluoroacetic acid-containing water • B: acetonitrile • A/B (min): 95/5 (0)→0/100 (3.5)→0/100 (4)→95/5 (4.01)→95/5 (5) • Flow rate: 0.8 mL/min • Detection: UV visible detector, measurement wavelength 254 nm • Injection volume: 5 μL or • Column: Acquity UPLC BEH C18, 1.7 μm, 50×2.1 mm • Column temperature: 40° C. • Mobile phase: A: 0.1% trifluoroacetic acid-containing water • B: acetonitrile • A/B (min): • 80/20 (0)→40/60 (3.0)→0/100 (3.5)→0/100 (4)→80/20 (4.01)→80/20 (5) • Flow rate: 0.8 mL/min • Detection: UV visible detector, measurement wavelength 254 nm • Injection volume: 2 μL or • Column: Acquity UPLC BEH C18, 1.7 μm, 50×2.1 mm • Column temperature: 40° C. • Mobile phase: A: 0.1% trifluoroacetic acid-containing water • B: acetonitrile • A/B (min): • 80/20 (0)→40/60 (3.0)→0/100 (3.5)→0/100 (4)→100/0 (4.01)→100/0 (5) • Flow rate: 0.8 mL/min • Detection: UV visible detector, measurement wavelength 254 nm • Injection volume: 3 μL

In the next data set the target is hSERT (Homo sapiens (Human), UniProt P31645). Put plainly: Serotonin receptor inhibitory activity evaluation (binding assay, HEK293/hSERT membranes). The following applies: for Inhibitory effect on serotonin receptors (in words): off-target. As to the method:
The binding evaluation assay was outsourced to Eurofins. Specifically, HEK293/hSERT cells were homogenized in a buffer consisting of 100 mmol/L NaCl, 1 μmol/L Leupeptin, 10 μmol/L PMSF, and 50 mmol/L Tris-HCl (pH7.4). The membrane pellet obtained by centrifugation was resuspended in an incubation buffer consisting of 50 mmol/L Tris-HCl (pH 7.4), 120 mmol/L NaCl, and 5 mmol/L KCl to prepare a membrane preparation. The test compound (1-10 μmol/L DMSO solution), the membrane preparation, and 0.4 nmol/L [^3H]Paroxetin were mixed and incubated at 25° C. for 60 minutes. The cell membrane-[^3H]Paroxetin complex was bound to a GF/B filter mat by vacuum filtration and washed with 50 mmol/L Tris-HCl (pH 7.4). The effect on the receptor was assessed by measuring radioactivity using a scintillation counter.

Data set [1] is described as follows: Pharmacokinetic study in mice. Particulars: for BA: oral 10 mg/kg vs intravenous 1 mg/kg. The format is in vivo. As to the method: The test compound was administered to 7-week-old female BALE/c (BALB/cAnN CrlCrlj) mice intravenously (dosage: 1 mg/kg) in a 50% PEG solution (0.01 mol/L HCl) or orally (dosage: 10 mg/kg) in a 0.5% methylcellulose aqueous solution, and blood was collected at the following times: • Intravenous administration: 5 min, 15 min, 30 min, 1 hr, 2 hr, 4 hr, 6 hr, and 24 hr after administration • Oral administration: 15 min, 30 min, 1 hr, 2 hr, 4 hr, 6 hr, and 24 hr after administration
The collected blood was centrifuged at 3000 rpm×10 min using a refrigerated centrifuge set at 4° C., and the obtained plasma was measured by LC-MS. A calibration curve was prepared from the value (peak ratio) obtained by dividing the peak area of the test substance by the peak area of the internal standard substance in MS and the concentration of the plasma calibration curve sample. The concentration in the sample was calculated from the peak ratio and the calibration curve of each sample.

Another data set has as its system G-401 cells. Put plainly: Cell proliferation inhibition experiment using G-401 cells. The format is cell-based. As for the experimental part:
G-401 cells (derived from malignant rhabdoid tumor) were obtained from the American Type Culture Collection (ATCC). G-401 cells were cultured in McCoy's 5A medium containing 10% fetal bovine serum and 1% penicillin/streptomycin under conditions of 37° C. and 5% CO2.
500 cells per well were seeded in a 384-well plate. One day after seeding, Examples 1 to 35 were added so that the final concentration of DMSO was 0.1%, and the cells were cultured for 3 days. After the culture was completed, the cell viability was measured using CellTiter-Glo Luminescent Cell Viability Assay (Promega, G7570).

A further data set has as its system G-401 xenograft. Put plainly: Drug efficacy evaluation by intravenous administration using G-401 xenograft mice model. The format is in vivo. The following applies: G-401 xenograft model. As for the experimental part:
G-401 cells (ATCC) were intradermally transplanted into 4-7-week-old BALB/cAnNCrj-nu/nu mice (CAnN.Cg-Foxnl/CrlCrlj, Jackson Laboratory Japan) at 5×10^5 cells/mouse. After confirming the engraftment of G-401 cells 10-40 days after transplantation, the test compound suspended in a solvent such as 10 mmol/L glycine buffer solution (pH 2.0) was administered via the tail vein at least once a week at a dose of 0.015-20 mg/kg. The tumor volume was measured over time from the start of administration, and the effect of tumor volume reduction by administration of the test compound was evaluated. The tumor volume can be calculated from the following equation using the minor axis and major axis of the tumor measured with an electronic caliper (Mitutoyo).
A control administration group administered with only a solvent such as 10 mmol/L glycine buffer solution (pH 2.0) and a test compound administration group were compared, and the antitumor effect was evaluated by calculating T/C from the following equation.

In the next data set the target is recombinant p300 (Homo sapiens (Human), UniProt Q09472). Put plainly: HAT activity inhibition experiment (SensoLyte HAT(p300) Assay Kit). The following applies: recombinant p300, acetyl CoA, histone H3 peptide. The format is biochemical. As to the method: The HAT activity inhibitory ability of HAT inhibitors was evaluated using SensoLyte HAT(p300) Assay Kit (ANASPEC, AS-72172). Specifically, 7.5 μL of the compound of Examples […] diluted with assay buffer was added to 7.5 μL of recombinant p300 solution diluted 10 times with assay buffer, and the mixture was incubated at room temperature for 10 minutes. 7.5 μL of acetyl CoA solution diluted 10 times with assay buffer and 15 μL of histone H3 peptide diluted 10 times with assay buffer were added thereto, and the mixture was incubated at 37° C. for 30 minutes. 37.5 μL of Stop Solution was added to stop the reaction. 75 μL of p300 Developer solution diluted 50 times with assay buffer was added, and the mixture was incubated at room temperature for 30 minutes under light-shielded conditions. The fluorescence at 513 nm when irradiated with 389 nm excitation light was measured using a multiplate reader.
recombinant p300, sequence (Q09472 whole entry): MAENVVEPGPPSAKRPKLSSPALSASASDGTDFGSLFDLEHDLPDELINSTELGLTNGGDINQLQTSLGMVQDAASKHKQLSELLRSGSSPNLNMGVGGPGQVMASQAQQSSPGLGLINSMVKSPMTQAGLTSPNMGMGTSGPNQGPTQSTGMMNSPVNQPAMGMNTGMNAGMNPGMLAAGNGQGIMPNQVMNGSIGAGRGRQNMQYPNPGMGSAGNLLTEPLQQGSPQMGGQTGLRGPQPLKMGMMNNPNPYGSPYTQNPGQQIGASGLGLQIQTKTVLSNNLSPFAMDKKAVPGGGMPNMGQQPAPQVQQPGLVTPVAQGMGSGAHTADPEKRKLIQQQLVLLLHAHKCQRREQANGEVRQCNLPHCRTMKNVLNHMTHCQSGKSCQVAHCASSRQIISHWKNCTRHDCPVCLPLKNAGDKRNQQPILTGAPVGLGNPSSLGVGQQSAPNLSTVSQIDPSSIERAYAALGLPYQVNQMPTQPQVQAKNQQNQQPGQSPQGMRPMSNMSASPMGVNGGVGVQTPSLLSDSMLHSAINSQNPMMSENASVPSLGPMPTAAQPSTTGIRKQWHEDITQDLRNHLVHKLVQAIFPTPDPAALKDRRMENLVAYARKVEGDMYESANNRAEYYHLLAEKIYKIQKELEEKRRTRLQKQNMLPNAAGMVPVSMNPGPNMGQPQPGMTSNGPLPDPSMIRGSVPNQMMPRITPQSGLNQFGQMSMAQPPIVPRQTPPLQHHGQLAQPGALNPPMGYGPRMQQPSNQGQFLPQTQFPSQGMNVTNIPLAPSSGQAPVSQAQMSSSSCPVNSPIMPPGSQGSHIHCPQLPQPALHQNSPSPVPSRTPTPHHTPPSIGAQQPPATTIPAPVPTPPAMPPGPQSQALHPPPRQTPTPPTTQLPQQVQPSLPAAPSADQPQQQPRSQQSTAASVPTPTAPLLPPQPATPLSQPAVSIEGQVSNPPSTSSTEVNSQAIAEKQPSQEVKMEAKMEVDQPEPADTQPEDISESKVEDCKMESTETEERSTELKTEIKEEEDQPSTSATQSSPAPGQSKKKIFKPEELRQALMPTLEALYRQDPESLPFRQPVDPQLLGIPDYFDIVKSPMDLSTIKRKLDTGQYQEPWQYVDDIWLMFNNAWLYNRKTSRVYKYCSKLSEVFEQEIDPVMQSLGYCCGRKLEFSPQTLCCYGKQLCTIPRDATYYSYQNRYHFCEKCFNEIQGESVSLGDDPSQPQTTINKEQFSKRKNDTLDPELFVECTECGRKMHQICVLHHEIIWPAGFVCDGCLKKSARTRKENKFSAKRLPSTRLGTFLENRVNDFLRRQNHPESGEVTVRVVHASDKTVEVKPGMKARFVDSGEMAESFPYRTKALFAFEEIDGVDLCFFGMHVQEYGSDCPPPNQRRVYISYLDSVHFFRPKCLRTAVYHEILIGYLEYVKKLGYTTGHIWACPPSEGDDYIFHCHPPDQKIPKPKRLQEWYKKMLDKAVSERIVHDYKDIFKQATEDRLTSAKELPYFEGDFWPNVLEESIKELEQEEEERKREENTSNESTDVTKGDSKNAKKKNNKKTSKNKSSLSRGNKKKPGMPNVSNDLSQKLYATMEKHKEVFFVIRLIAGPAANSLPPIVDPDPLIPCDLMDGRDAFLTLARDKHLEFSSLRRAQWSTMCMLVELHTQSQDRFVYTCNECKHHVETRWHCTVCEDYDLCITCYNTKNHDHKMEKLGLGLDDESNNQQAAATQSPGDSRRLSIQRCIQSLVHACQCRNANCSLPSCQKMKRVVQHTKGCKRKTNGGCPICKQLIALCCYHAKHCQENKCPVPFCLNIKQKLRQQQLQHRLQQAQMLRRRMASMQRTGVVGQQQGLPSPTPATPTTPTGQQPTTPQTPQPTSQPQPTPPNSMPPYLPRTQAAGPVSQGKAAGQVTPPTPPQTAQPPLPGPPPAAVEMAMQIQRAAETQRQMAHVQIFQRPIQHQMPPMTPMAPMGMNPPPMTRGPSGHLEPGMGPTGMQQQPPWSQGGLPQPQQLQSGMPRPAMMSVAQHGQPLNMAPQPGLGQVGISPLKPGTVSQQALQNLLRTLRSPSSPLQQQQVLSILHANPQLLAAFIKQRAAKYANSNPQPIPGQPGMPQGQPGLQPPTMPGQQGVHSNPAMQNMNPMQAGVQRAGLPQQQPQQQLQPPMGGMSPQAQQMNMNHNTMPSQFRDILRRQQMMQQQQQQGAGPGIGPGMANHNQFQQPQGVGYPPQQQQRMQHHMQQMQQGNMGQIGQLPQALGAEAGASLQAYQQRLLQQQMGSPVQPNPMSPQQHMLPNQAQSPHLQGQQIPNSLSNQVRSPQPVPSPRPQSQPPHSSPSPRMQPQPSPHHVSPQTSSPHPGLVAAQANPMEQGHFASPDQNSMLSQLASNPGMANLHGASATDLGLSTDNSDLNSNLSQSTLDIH

SMILES strings stand for the structures. ≈ marks a conversion by molar mass, not a printed value. Where two headings read alike, the source gives them in different places.

hSERT, sequence (P31645 whole entry): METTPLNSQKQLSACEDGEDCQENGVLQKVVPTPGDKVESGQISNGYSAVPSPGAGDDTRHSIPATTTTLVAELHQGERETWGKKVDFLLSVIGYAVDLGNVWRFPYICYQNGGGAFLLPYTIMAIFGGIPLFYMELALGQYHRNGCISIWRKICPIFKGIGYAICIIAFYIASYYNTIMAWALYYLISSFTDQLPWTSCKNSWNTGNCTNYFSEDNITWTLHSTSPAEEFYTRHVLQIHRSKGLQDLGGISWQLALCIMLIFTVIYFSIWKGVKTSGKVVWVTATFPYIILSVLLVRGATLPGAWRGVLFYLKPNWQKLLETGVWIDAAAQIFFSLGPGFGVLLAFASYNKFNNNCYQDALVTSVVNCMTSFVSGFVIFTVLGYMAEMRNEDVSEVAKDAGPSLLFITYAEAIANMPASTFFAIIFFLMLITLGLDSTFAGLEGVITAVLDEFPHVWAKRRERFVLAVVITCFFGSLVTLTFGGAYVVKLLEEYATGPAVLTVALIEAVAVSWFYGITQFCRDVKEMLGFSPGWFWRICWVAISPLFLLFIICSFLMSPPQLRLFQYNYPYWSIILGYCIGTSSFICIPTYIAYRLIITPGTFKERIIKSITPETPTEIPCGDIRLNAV
hDAT, sequence (Q01959 whole entry): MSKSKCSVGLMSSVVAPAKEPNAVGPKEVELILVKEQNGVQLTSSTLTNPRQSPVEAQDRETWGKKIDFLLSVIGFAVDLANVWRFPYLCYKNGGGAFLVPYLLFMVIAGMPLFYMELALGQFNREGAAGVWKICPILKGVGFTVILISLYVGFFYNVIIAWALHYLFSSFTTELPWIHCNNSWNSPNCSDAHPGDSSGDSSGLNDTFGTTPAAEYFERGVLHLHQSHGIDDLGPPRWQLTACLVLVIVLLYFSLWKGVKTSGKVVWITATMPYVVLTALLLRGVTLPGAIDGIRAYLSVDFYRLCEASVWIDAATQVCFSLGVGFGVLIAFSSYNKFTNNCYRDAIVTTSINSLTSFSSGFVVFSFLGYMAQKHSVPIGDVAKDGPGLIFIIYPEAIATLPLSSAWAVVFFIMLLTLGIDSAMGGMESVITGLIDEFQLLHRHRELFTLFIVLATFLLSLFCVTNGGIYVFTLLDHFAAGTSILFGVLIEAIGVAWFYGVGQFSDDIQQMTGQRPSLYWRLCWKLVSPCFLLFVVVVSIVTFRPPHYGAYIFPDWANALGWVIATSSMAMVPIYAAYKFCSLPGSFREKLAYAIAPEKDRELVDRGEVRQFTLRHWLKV

On to `CNC(=O)Nc1ccc2c(c1)CC[C@@]21OC(=O)N(CC(=O)N2[C@@H](C)CC[C@H]2c2cc(F)c(F)c(F)c2)C1=O` [Comparative Example 2, reference compound], for which the inhibition at 10 µM at hDAT (10 μM, CHO-S/hDAT membrane preparation) stood at 88%; at hSERT (10 μM, HEK293/hSERT membrane preparation), 76%. For the same molecule, the “Inhibitory effect on dopamine receptors (in words)” value on hDAT is on record as “strong inhibitory effect”. For the same molecule, the “Solubility in pH 3.0 buffer” value in “Solubility test” (10 mmol/L citrate buffer (pH 3.0), 5° C., overnight) stood at 0.005 mg/mL. Also, the “Solubility in pH 2.0 buffer” value in “Solubility test” (10 mmol/L glycine buffer (pH 2.0), 5° C., overnight) is 0.004 mg/mL. In addition, the solubility in “Solubility test” (10 mmol/L citrate buffer (pH 3.0), 5° C., overnight, read-out: Solubility in pH 3.0 buffer) turned out to be 5 µg/mL (≈ 9.43 µM); in “Solubility test” (10 mmol/L glycine buffer (pH 2.0), 5° C., overnight, read-out: Solubility in pH 2.0 buffer), 4 µg/mL (≈ 7.54 µM). Also, the “Inhibitory effect on serotonin receptors (in words)” value on hSERT was “strong inhibitory effect”.

`CN1CC(N(Cc2ccc(F)cc2)C(=O)CN2C(=O)N[C@]3(CCc4cc(-c5cnn(C)c5)ccc43)C2=O)(C(F)(F)F)C1` [Example 12, N-[(4-fluorophenyl)methyl]-2-[(1′S)-5′-(1-methyl-1H-pyrazol-4-yl)-2,5-dioxo-2′,3′-dihydrospiro[imidazolidine-4,1′-inden]-1-yl]-N-[1-methyl-3-(trifluoromethyl)azetidin-3-yl]acetamide]: the BA in data set [1] was 30.0%.

Turning to `CN1CC(N(Cc2ccc(F)cn2)C(=O)CN2C(=O)N[C@]3(C[C@@H](F)c4cc(-c5cnn(CC6COC6)c5)ccc43)C2=O)(C(F)(F)F)C1` [Example 25, 2-[(1′S,3′R)-3′-fluoro-5′-{1-[(oxetan-3-yl)methyl]-1H-pyrazol-4-yl}-2,5-dioxo-2′,3′-dihydrospiro[imidazolidine-4,1′-inden]-1-yl]-N-[(5-fluoropyridin-2-yl)methyl]-N-[1-methyl-3-(trifluoromethyl)azetidin-3-yl]acetamide], the “Inhibitory effect on dopamine receptors (in words)” value on hDAT is recorded as “did not show strong inhibitory activity”. The “Inhibitory effect on serotonin receptors (in words)” value at hSERT is “did not show strong inhibitory activity”.

`CN1CC(N(Cc2ccc(F)cc2)C(=O)CN2C(=O)N[C@]3(C[C@@H](F)c4cc(-c5cnn(C6CCOCC6)c5)ccc43)C2=O)(C(F)(F)F)C1` [Example 19, 2-{(1′S,3′R)-3′-fluoro-5′-[1-(oxan-4-yl)-1H-pyrazol-4-yl]-2,5-dioxo-2′,3′-dihydrospiro[imidazolidine-4,1′-inden]-1-yl}-N-[(4-fluorophenyl)methyl]-N-[1-methyl-3-(trifluoromethyl)azetidin-3-yl]acetamide]: the “Cell proliferation inhibitory effect on G-401 cells (in words)” value with G-401 cells is “strong cell proliferation inhibitory effect”.

For the molecule `CN1CC(N(Cc2ccc(F)cn2)C(=O)CN2C(=O)N[C@]3(C[C@@H](F)c4cc(-c5cnn(C6COC6)c5)ccc43)C2=O)(C(F)(F)F)C1` [Example 24, 2-{(1′S,3′R)-3′-fluoro-5′-[1-(oxetan-3-yl)-1H-pyrazol-4-yl]-2,5-dioxo-2′,3′-dihydrospiro[imidazolidine-4,1′-inden]-1-yl}-N-[(5-fluoropyridin-2-yl)methyl]-N-[1-methyl-3-(trifluoromethyl)azetidin-3-yl]acetamide], in data set [1], the “Pharmacokinetics (in words)” value was “excellent pharmacokinetics” and the BA came out at 47.0%. Moreover, in the data set on G-401 xenograft, the “Antitumor effect, intravenous administration (in words)” value was “strong antitumor effects”. Besides, the “Inhibitory effect on dopamine receptors (in words)” value at hDAT is on record as “did not show strong inhibitory activity”. Besides, the “Solubility (in words)” value in “Solubility test” (pH 2.0 and pH 3.0 buffers) was “high solubility”. Further, the “Inhibitory effect on serotonin receptors (in words)” value on hSERT is “did not show strong inhibitory activity”.

`O=C1N[C@]2(C[C@@H](F)c3cc(-c4cnn(C5CN(C6COC6)C5)c4)ccc32)C(=O)N1CC(=O)N(Cc1ccc(F)cn1)C1(C(F)(F)F)CC(F)(F)C1` [Example 9, N-[3,3-difluoro-1-(trifluoromethyl)cyclobutyl]-2-[(1′S,3′R)-3′-fluoro-5′-{1-[1-(oxetan-3-yl)azetidin-3-yl]-1H-pyrazol-4-yl}-2,5-dioxo-2′,3′-dihydrospiro[imidazolidine-4,1′-inden]-1-yl]-N-[(5-fluoropyridin-2-yl)methyl]acetamide]: the IC50 on recombinant p300 is 0.6 nM.

As for `CNC(=O)Cn1cc(-c2ccc3c(c2)[C@H](F)C[C@]32NC(=O)N(CC(=O)N(Cc3ccc(F)cc3)[C@@H](C)C(F)(F)F)C2=O)cn1` [Comparative Example 1, reference compound], the “Antitumor effect, intravenous administration (in words)” value in the data set with G-401 xenograft is given as “no antitumor effect”.

In the case of `O=C1N[C@]2(CCc3cc(-c4cnn(C5CN(C6COC6)C5)c4)ccc32)C(=O)N1CC(=O)N(Cc1ccc(F)cn1)C1(C(F)(F)F)CC(F)(F)C1` [Example 8, N-[3,3-difluoro-1-(trifluoromethyl)cyclobutyl]-N-[(5-fluoropyridin-2-yl)methyl]-2-[(1′S)-5′-{-[1-(oxetan-3-yl)azetidin-3-yl]-1H-pyrazol-4-yl}-2,5-dioxo-2′,3′-dihydrospiro[imidazolidine-4,1′-inden]-1-yl]acetamide], the IC50 on recombinant p300 was found to be 17.2 nM.
